Laboratory results taken from ChEMBL document CHEMBL1201862, “PubChem BioAssay data set” (2004).
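Dose response: 5 concentrations. Exposure: 48 h. Format: 96-well plates. Endpoint: linear interpolation; highest concentration if not reached. At the GI50, growth is halved.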 The source made the active and inactive calls. Rule as the data show it: active = GI50 up to about 1.1 µM and inactive = higher.

Assays:
Experiment in all cases: NCI anticancer screen, dose series, 48 h
786-0 = tested on: 786-0
HT-29 = tested on: HT-29
K562 = tested on: K562
A498 = tested on: A498
DU-145 = tested on: DU-145
SN12C = tested on: SN12C
SNB-75 = tested on: SNB-75
CAKI-1 = tested on: CAKI-1
SK-OV-3 = tested on: SK-OV-3
HCC 2998 = tested on: HCC 2998
BT-549 = tested on: BT-549
MDA-MB-231 = tested on: MDA-MB-231
Hs-578T = tested on: Hs-578T
HCT-116 = tested on: HCT-116
OVCAR-5 = tested on: OVCAR-5
U-251 = tested on: U-251
LOX IMVI = tested on: LOX IMVI
MOLT-4 = tested on: MOLT-4
SNB-19 = tested on: SNB-19
OVCAR-4 = tested on: OVCAR-4
NCI/ADR-RES = tested on: NCI/ADR-RES
PC-3 = tested on: PC-3
MDA-MB-435 = tested on: MDA-MB-435
RPMI-8226 = tested on: RPMI-8226
ACHN = tested on: ACHN
HL-60 = tested on: HL-60
OVCAR-8 = tested on: OVCAR-8
SK-MEL-5 = tested on: SK-MEL-5
Malme-3M = tested on: Malme-3M
UACC-257 = tested on: UACC-257
T47D = tested on: T47D
KM12 = tested on: KM12
SR = tested on: SR
IGROV-1 = tested on: IGROV-1
NCI-H226 = tested on: NCI-H226
MDA-N = tested on: MDA-N
SF-268 = tested on: SF-268
MCF7 = tested on: MCF7
HCT-15 = tested on: HCT-15
SK-MEL-2 = tested on: SK-MEL-2
NCI-H522 = tested on: NCI-H522
SK-MEL-28 = tested on: SK-MEL-28
CCRF-CEM = tested on: CCRF-CEM
SF-539 = tested on: SF-539
RXF 393 = tested on: RXF 393
HOP-92 = tested on: HOP-92
UACC-62 = tested on: UACC-62
COLO 205 = tested on: COLO 205
TK-10 = tested on: TK-10
UO-31 = tested on: UO-31
SW-620 = tested on: SW-620
SF-295 = tested on: SF-295
HOP-62 = tested on: HOP-62
A549 = tested on: A549
OVCAR-3 = tested on: OVCAR-3
NCI-H460 = tested on: NCI-H460
NCI-H23 = tested on: NCI-H23
EKVX = tested on: EKVX
M14 = tested on: M14

## CC1=CC(C)C(C)N(CC2=NCCN2)c2ccccc21 (configuration not stated)
786-0
  GI50: 83.2 µM (inactive)
HT-29
  GI50: 18.7 µM (inactive)
K562
  GI50: 36.9 µM (inactive)
A498
  GI50: > 59.8 µM (inactive)
DU-145
  GI50: > 69.5 µM (inactive)
SN12C
  GI50: > 100 µM (inactive)
SNB-75
  GI50: 46 µM (inactive)
CAKI-1
  GI50: > 86.9 µM (inactive)
SK-OV-3
  GI50: 96.8 µM (inactive)
HCC 2998
  GI50: 17.9 µM (inactive)
BT-549
  GI50: > 100 µM (inactive)
MDA-MB-231
  GI50: 32.9 µM (inactive)
Hs-578T
  GI50: > 74.3 µM (inactive)
HCT-116
  GI50: 40 µM (inactive)
OVCAR-5
  GI50: > 57.7 µM (inactive)
U-251
  GI50: 76.6 µM (inactive)
LOX IMVI
  GI50: 38.1 µM (inactive)
MOLT-4
  GI50: 55 µM (inactive)
SNB-19
  GI50: > 100 µM (inactive)
OVCAR-4
  GI50: > 100 µM (inactive)
NCI/ADR-RES
  GI50: 99.5 µM (inactive)
PC-3
  GI50: 46.3 µM (inactive)
MDA-MB-435
  GI50: 46.5 µM (inactive)
RPMI-8226
  GI50: 38.7 µM (inactive)
ACHN
  GI50: 97.9 µM (inactive)
HL-60
  GI50: > 47 µM (inactive)
OVCAR-8
  GI50: > 80.9 µM (inactive)
SK-MEL-5
  GI50: 20.1 µM (inactive)
Malme-3M
  GI50: 21.4 µM (inactive)
UACC-257
  GI50: 19.5 µM (inactive)
T47D
  GI50: > 57.8 µM (inactive)
KM12
  GI50: > 68.4 µM (inactive)
SR
  GI50: 26 µM (inactive)
IGROV-1
  GI50: > 100 µM (inactive)
NCI-H226
  GI50: 68.1 µM (inactive)
MDA-N
  GI50: 52.5 µM (inactive)
SF-268
  GI50: 72.8 µM (inactive)
MCF7
  GI50: 53.7 µM (inactive)
HCT-15
  GI50: > 100 µM
SK-MEL-2
  GI50: 44.8 µM (inactive)
NCI-H522
  GI50: 29.2 µM (inactive)
SK-MEL-28
  GI50: 18.7 µM (inactive)
CCRF-CEM
  GI50: 45.6 µM (inactive)
SF-539
  GI50: 62.1 µM (inactive)
RXF 393
  GI50: 27.6 µM (inactive)
HOP-92
  GI50: 11 µM (inactive)
UACC-62
  GI50: 49.3 µM (inactive)
COLO 205
  GI50: 16.9 µM (inactive)
TK-10
  GI50: 54.2 µM (inactive)
UO-31
  GI50: 47.3 µM (inactive)
SW-620
  GI50: > 100 µM (inactive)
SF-295
  GI50: 67.3 µM (inactive)
HOP-62
  GI50: > 100 µM (inactive)
A549
  GI50: > 87.3 µM (inactive)
OVCAR-3
  GI50: 56.8 µM (inactive)
NCI-H460
  GI50: 60.8 µM (inactive)
NCI-H23
  GI50: > 100 µM (inactive)
EKVX
  GI50: > 100 µM (inactive)
M14
  GI50: 17.8 µM (inactive)

## O=C(c1c(F)c(F)c(F)c(F)c1F)c1c(F)c(F)c(F)c(F)c1F
786-0
  GI50: 0.476 µM (active)
HT-29
  GI50: 1.32 µM (inactive)
K562
  GI50: 0.316 µM (active)
A498
  GI50: 3.06 µM (inactive)
DU-145
  GI50: 1.96 µM (inactive)
SN12C
  GI50: 1.87 µM (inactive)
SNB-75
  GI50: 1.98 µM (inactive)
CAKI-1
  GI50: 0.914 µM (active)
SK-OV-3
  GI50: 2.39 µM (inactive)
HCC 2998
  GI50: 1.67 µM (inactive)
BT-549
  GI50: 2.46 µM (inactive)
MDA-MB-231
  GI50: 1.85 µM (inactive)
Hs-578T
  GI50: 2.69 µM (inactive)
HCT-116
  GI50: 1.51 µM (inactive)
OVCAR-5
  GI50: 1.9 µM (inactive)
U-251
  GI50: 0.951 µM (active)
LOX IMVI
  GI50: 0.71 µM (active)
MOLT-4
  GI50: 0.171 µM (active)
SNB-19
  GI50: 4.06 µM (inactive)
OVCAR-4
  GI50: 1.75 µM (inactive)
NCI/ADR-RES
  GI50: 3.13 µM (inactive)
PC-3
  GI50: 1.62 µM (inactive)
MDA-MB-435
  GI50: 1.56 µM (inactive)
RPMI-8226
  GI50: 0.0528 µM (active)
ACHN
  GI50: 1.7 µM (inactive)
HL-60
  GI50: 0.48 µM (active)
OVCAR-8
  GI50: 1.5 µM (inactive)
SK-MEL-5
  GI50: 2.82 µM (inactive)
Malme-3M
  GI50: 1.52 µM (inactive)
UACC-257
  GI50: 1.84 µM (inactive)
T47D
  GI50: 1.69 µM (inactive)
KM12
  GI50: 0.535 µM (active)
SR
  GI50: 0.174 µM (active)
IGROV-1
  GI50: 1.3 µM (inactive)
NCI-H226
  GI50: 3.51 µM (inactive)
MDA-N
  GI50: 1.43 µM (inactive)
SF-268
  GI50: 2.55 µM (inactive)
MCF7
  GI50: 0.299 µM (active)
HCT-15
  GI50: 1.55 µM
SK-MEL-2
  GI50: 2.24 µM (inactive)
NCI-H522
  GI50: 0.182 µM (active)
SK-MEL-28
  GI50: 2.88 µM (inactive)
CCRF-CEM
  GI50: 0.0553 µM (active)
SF-539
  GI50: 1.09 µM (active)
RXF 393
  GI50: 1.55 µM (inactive)
HOP-92
  GI50: 1.83 µM (inactive)
UACC-62
  GI50: 1.92 µM (inactive)
COLO 205
  GI50: 1.45 µM (inactive)
TK-10
  GI50: 1.19 µM (inactive)
UO-31
  GI50: 1.23 µM (inactive)
SW-620
  GI50: 1.06 µM (active)
SF-295
  GI50: 2.55 µM (inactive)
HOP-62
  GI50: 1.81 µM (inactive)
A549
  GI50: 3.53 µM (inactive)
OVCAR-3
  GI50: 0.979 µM (active)
NCI-H460
  GI50: 2.25 µM (inactive)
NCI-H23
  GI50: 2.48 µM (inactive)
EKVX
  GI50: 1.96 µM (inactive)
M14
  GI50: 2.1 µM (inactive)

## COc1ccc(-c2oc3c(OC)c(OC)c(OC)c(O)c3c(=O)c2OC)cc1OC
786-0
  GI50: 25.4 µM (inactive)
HT-29
  GI50: 23.6 µM (inactive)
K562
  GI50: 10.6 µM (inactive)
A498
  GI50: 19.9 µM (inactive)
DU-145
  GI50: 36.2 µM (inactive)
SN12C
  GI50: 26.2 µM (inactive)
SNB-75
  GI50: 1.66 µM (inactive)
CAKI-1
  GI50: 40.4 µM (inactive)
SK-OV-3
  GI50: 8.2 µM (inactive)
HCC 2998
  GI50: 19.3 µM (inactive)
BT-549
  GI50: 34.4 µM (inactive)
MDA-MB-231
  GI50: 22.2 µM (inactive)
Hs-578T
  GI50: 3.01 µM (inactive)
HCT-116
  GI50: 24.9 µM (inactive)
OVCAR-5
  GI50: 35.6 µM (inactive)
U-251
  GI50: 27.7 µM (inactive)
LOX IMVI
  GI50: 11 µM (inactive)
MOLT-4
  GI50: 15.5 µM (inactive)
SNB-19
  GI50: 63.4 µM (inactive)
OVCAR-4
  GI50: 26.5 µM (inactive)
NCI/ADR-RES
  GI50: 13.3 µM (inactive)
PC-3
  GI50: 18 µM (inactive)
MDA-MB-435
  GI50: 4.69 µM (inactive)
RPMI-8226
  GI50: 16.7 µM (inactive)
ACHN
  GI50: 25 µM (inactive)
HL-60
  GI50: 6.81 µM (inactive)
OVCAR-8
  GI50: 25.4 µM (inactive)
SK-MEL-5
  GI50: 9.71 µM (inactive)
Malme-3M
  GI50: 46.8 µM (inactive)
UACC-257
  GI50: 32.1 µM (inactive)
T47D
  GI50: 2.86 µM (inactive)
KM12
  GI50: 24.4 µM (inactive)
SR
  GI50: 7.87 µM (inactive)
IGROV-1
  GI50: 3.15 µM (inactive)
NCI-H226
  GI50: 20.7 µM (inactive)
MDA-N
  GI50: 10.3 µM (inactive)
SF-268
  GI50: 9.33 µM (inactive)
MCF7
  GI50: 3.97 µM (inactive)
HCT-15
  GI50: 14 µM
SK-MEL-2
  GI50: 15.1 µM (inactive)
NCI-H522
  GI50: 14.3 µM (inactive)
SK-MEL-28
  GI50: 32.2 µM (inactive)
CCRF-CEM
  GI50: 16.9 µM (inactive)
SF-539
  GI50: 19.4 µM (inactive)
RXF 393
  GI50: 17.4 µM (inactive)
HOP-92
  GI50: 0.243 µM (active)
UACC-62
  GI50: 21.8 µM (inactive)
COLO 205
  GI50: 25.8 µM (inactive)
TK-10
  GI50: 36.2 µM (inactive)
UO-31
  GI50: 9.06 µM (inactive)
SW-620
  GI50: 20.8 µM (inactive)
SF-295
  GI50: 22 µM (inactive)
HOP-62
  GI50: 19.5 µM (inactive)
A549
  GI50: 27.5 µM (inactive)
OVCAR-3
  GI50: 22.7 µM (inactive)
NCI-H460
  GI50: 17.8 µM (inactive)
NCI-H23
  GI50: 31.1 µM (inactive)
EKVX
  GI50: 37.6 µM (inactive)
M14
  GI50: 26.4 µM (inactive)
